Test results: patent publication US20260200943A1, “COMPOUNDS FOR TREATING CANCER” (Genesis Therapeutics, Inc., priority 2022, published 2026)
pKi: −log10 of the molar value.

What was measured:
Type in all cases: biochemical
CDK6/CyclinD3 = molecular target: T1, CDK6/CyclinD3 (Homo sapiens, UniProt Q00534); assay: CDK6/CyclinD3 ChEF Assay (AQT, Table C); settings: read-out: CDK6/CCND3 AQT Ki: Average Ki
T1 construct: Wild-type, full length CDK6 in complex with wildtype, full length CyclinD3: Carna Cat #04-107; purchased Carna 04-107
Protocol: (§1) 16 nL of 1000× compound in 100% DMSO is added to a 384-well low volume, black assay plate. 12 μL of 1.3×CDK6/CyclinD3 (Wild-type, full length CDK6 in complex with wildtype, full length CyclinD3: Carna Cat #04-107) diluted in assay buffer (54 mM Hepes, 0.012% Brij-35, 10 mM MgCl2, 0.55 mM EGTA, 1% Glycerol, 0.02% BSA, and 1.2 mM DTT) is added to the plates on top of the compound and pre-incubated for 30 minutes at room temperature. Following the incubation, 4 uL of 4×Sox-chromophore (CSox) labeled peptide substrate (AQT0258, AssayQuant) & ATP diluted in assay buffer is added to the plate to initiate the reaction. The assay is incubated at room temperature for 300 min after initiation. The CSox peptide substrate is phosphorylated by CDK6/D3 upon ATP hydrolysis.
(§2) The fluorescent intensity measurement of the assay plate is read on a microplate reader once the assay is initiated and again at the completion of the assay. Phosphorylation of the CSox-based peptide substrate sensor results in an immediate increase in fluorescence. These raw fluorescence intensity values are normalized to calculate percent inhibition, which are fit to a four-parameter logistic curve and IC50 values are calculated. IC50 values are converted to Ki using substrate, KM^app values, and the Cheng-Prusoff equation.

CDK4/CyclinD1 = molecular target: T2, CDK4/CyclinD1 (Homo sapiens, UniProt P11802); assay: CDK4/CyclinD1 ChEF Assay (AQT, Table C); settings: read-out: CDK4/CCND1 AQT Ki: Average Ki
T2 construct: Wild-type, full length CDK4 in complex with wildtype, CyclinD1: ThermoFisher Cat #PR8064A; purchased ThermoFisher PR8064A
Protocol: as §1, with “1.3×CDK4/CyclinD1” for “1.3×CDK6/CyclinD3”, “CDK4” for “CDK6”, “CyclinD1: ThermoFisher” for “full length CyclinD3: Carna”, “#PR8064A)” for “#04-107)”, “150” for “300”, “CDK4/D1” for “CDK6/D3”
as §2, with “KM^ap” for “KM^app”

CDK9/CyclinT1 = CDK9/CyclinT1 (Homo sapiens, UniProt P50750); assay: CDK9/CyclinT1 ChEF Assay (AQT, Table C); parameters: Wild-type, full length CDK9 in complex with wildtype, CyclinT1 (1-259): Biortus Cat #BP480/792/691; purchased Biortus BP480/792/691; settings: 10XKm
Protocol: 16 nL of 1000× compound in 100% DMSO is added to a 384-well low volume, black assay plate. 12 μL of 1.3×CDK9/CyclinT1 (Wild-type, full length CDK9 in complex with wildtype, CyclinT1 (1-259): Biortus Cat #BP480/792/691) diluted in assay buffer (54 mM Hepes, 0.012% Brij-35, 10 mM MgCl2, 0.55 mM EGTA, 1% Glycerol, 0.02% BSA, and 1.2 mM DTT) is added to the plates on top of the compound and pre-incubated for 30 minutes at room temperature. Following the incubation, 4 μL of 4×Sox-chromophore (CSox) labeled peptide substrate (AQT0449, AssayQuant) & ATP diluted in assay buffer is added to the plate to initiate the reaction. The assay is incubated at room temperature for 180 min after initiation. The CSox peptide substrate is phosphorylated by CDK9/T1 upon ATP hydrolysis.
as §2

CDK1/CyclinB1 = molecular target: T3, CDK1/CyclinB1 (Homo sapiens, UniProt P06493); assay: CDK1/CyclinB1 ChEF Assay (AQT, Table C); settings: 10xKm, read-out: CDK1/CCNB1 AQT AQT10xKm Ki: Average Ki
T3 construct: Wild-type, full length CDK1 in complex with wildtype, full length CyclinB1: Carna Cat #04-102; purchased Carna 04-102
Protocol: 16 nL of 1000× compound in 100% DMSO is added to a 384-well low volume, black assay plate. 12 μL of 1.3×CDK1/CyclinB1 (Wild-type, full length CDK1 in complex with wildtype, full length CyclinB1: Carna Cat #04-102) diluted in assay buffer (54 mM Hepes, 0.012% Brij-35, 10 mM MgCl2, 0.55 mM EGTA, 1% Glycerol, 0.02% BSA, and 1.2 mM DTT) is added to the plates on top of the compound and pre-incubated for 30 minutes at room temperature. Following the incubation, 4 uL of 4×Sox-chromophore (CSox) labeled peptide substrate (AQT0297, AssayQuant) & ATP diluted in assay buffer is added to the plate to initiate the reaction. The assay is incubated at room temperature for 120 min after initiation. The CSox peptide substrate is phosphorylated by CDK1/B1 upon ATP hydrolysis.
as §2

CDK9/CyclinT1, sequence (P50750 whole entry): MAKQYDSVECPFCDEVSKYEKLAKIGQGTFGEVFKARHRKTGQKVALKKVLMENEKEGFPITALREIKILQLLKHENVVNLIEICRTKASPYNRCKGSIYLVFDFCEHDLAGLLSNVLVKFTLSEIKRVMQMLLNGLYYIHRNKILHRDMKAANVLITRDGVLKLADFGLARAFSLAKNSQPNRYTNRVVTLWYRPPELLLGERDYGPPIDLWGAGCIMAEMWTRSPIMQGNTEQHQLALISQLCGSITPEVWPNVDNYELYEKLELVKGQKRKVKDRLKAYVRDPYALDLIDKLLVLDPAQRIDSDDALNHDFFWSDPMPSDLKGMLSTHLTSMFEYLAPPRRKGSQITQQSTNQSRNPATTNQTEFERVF
CDK9/CyclinT1, sequence (O60563 1-259 partner limits assumed): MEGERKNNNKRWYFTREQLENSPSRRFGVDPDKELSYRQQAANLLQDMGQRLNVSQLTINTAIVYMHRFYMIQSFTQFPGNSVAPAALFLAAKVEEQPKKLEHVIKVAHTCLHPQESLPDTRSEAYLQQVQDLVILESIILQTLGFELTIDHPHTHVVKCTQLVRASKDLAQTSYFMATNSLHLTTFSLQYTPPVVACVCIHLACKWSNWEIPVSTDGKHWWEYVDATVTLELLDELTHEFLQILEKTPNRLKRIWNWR
T3 sequence (P06493 whole entry): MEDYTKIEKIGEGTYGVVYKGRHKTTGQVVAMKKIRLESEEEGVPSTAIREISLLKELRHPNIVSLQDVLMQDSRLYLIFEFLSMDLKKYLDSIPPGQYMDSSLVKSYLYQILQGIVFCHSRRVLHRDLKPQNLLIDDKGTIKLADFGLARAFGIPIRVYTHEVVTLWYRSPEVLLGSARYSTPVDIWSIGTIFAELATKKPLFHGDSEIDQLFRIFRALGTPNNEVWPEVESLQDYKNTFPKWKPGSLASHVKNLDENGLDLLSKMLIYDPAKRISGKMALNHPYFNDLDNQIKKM
T3 sequence (P14635 whole entry partner): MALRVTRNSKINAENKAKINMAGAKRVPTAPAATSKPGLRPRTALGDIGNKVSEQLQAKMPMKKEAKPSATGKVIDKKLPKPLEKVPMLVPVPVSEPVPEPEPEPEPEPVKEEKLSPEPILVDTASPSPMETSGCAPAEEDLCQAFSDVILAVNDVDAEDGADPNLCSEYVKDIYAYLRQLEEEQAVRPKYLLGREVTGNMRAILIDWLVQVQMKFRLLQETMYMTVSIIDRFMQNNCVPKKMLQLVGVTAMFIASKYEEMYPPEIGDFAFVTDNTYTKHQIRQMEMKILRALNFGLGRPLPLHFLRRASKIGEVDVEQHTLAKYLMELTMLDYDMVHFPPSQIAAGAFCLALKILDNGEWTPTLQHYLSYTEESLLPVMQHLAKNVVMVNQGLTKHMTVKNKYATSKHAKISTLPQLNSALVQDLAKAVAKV
T2 sequence (P11802 whole entry): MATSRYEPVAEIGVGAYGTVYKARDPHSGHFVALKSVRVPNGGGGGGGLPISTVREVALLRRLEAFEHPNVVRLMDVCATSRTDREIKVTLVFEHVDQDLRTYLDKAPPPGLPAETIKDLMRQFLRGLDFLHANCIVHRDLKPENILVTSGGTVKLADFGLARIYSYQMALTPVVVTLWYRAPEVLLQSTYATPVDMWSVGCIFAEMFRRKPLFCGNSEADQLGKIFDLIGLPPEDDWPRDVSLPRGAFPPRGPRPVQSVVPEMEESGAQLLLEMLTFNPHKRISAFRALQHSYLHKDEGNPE
T2 sequence (P24385 whole entry partner): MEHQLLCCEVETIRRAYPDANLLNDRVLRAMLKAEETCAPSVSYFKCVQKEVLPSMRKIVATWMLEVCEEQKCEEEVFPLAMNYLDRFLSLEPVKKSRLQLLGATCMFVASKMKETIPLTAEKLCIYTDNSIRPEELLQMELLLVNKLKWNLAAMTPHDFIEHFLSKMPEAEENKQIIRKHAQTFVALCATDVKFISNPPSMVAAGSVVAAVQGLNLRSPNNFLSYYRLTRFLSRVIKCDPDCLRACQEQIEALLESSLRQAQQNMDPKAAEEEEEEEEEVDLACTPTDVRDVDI
T1 sequence (Q00534 whole entry): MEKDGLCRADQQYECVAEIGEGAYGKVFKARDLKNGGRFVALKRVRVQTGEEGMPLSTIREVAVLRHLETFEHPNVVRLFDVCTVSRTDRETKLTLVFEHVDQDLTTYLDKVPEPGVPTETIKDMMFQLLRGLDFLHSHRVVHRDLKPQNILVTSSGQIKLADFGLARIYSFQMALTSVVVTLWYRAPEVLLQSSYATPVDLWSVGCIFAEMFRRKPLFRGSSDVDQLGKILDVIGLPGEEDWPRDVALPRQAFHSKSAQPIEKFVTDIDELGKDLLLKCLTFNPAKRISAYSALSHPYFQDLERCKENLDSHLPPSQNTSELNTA
T1 sequence (P30281 whole entry partner): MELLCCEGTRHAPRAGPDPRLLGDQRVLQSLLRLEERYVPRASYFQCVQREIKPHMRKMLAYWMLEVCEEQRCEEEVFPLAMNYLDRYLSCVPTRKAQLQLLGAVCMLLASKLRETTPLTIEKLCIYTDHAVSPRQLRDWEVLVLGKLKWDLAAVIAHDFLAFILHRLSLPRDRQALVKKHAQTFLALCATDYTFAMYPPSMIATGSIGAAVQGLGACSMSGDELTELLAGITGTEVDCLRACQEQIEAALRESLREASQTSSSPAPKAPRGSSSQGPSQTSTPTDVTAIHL

Row | pKi (CDK6/CyclinD3) | pKi (CDK4/CyclinD1) | pKi (CDK9/CyclinT1) | pKi (CDK1/CyclinB1) | Structure (SMILES)
1 | ≤ 7.00 | ≤ 7.00 | 7.00 to 7.60 | 7.60 to 9.00 | NS(=O)(=O)c1ccc2cc1OCCCCCNC(=O)O[C@@H]1CC[C@@H](C1)c1cnc(nc1)N2 (stereo in doubt) [Compound 105, rel-(2S,5R)-7-oxo-6,14-dioxa-8,20,22,25-tetraazatetracyclo[19.2.2.1^{2,5}.1^{15,19}]heptacosa-1(23),15,17,19(26),21,24-hexaene-16-sulfonamide]
2 | ≤ 7.00 | ≤ 7.00 | 7.00 to 7.60 | 7.60 to 9.00 | O=C1NCCCCCCNS(=O)(=O)c2ccc(c(F)c2)Nc2cc([nH]n2)[C@H]2CC[C@H](C2)O1 [Compound 91, (1^1S,1^3R,Z)-4^2-fluoro-2^1H-15-oxa-5-thia-3,6,13-triaza-2(5,3)-pyrazola-4(1,4)-benzena-1(1,3)-cyclopentanacyclopentadecaphan-14-one 5,5-dioxide]
3 |  |  | 7.00 to 7.60 | 7.60 to 9.00 | O=C1NCCCCCCn2cc(cn2)S(=O)(=O)N2CCC(CC2)Nc2cc([nH]n2)[C@H]2CC[C@H](C2)O1 [Compound 97, (1^1S,1^3R,2^4Z,6^4E)-2^1H,6^1H-15-oxa-5-thia-3,13-diaza-4(4,1)-piperidina-2(5,3),6(4,1)-dipyrazola-1(1,3)-cyclopentanacyclopentadecaphan-14-one 5,5-dioxide]
